According to paper PMC6176658, “Experimentally Validated Pharmacoinformatics Approach to Predict hERG Inhibition Potential of New Chemical Entities” (Frontiers in Pharmacology, 2018):

Target: T1, hERG (Kv11.1) potassium channel (Homo sapiens, UniProt Q12809)
T1 construct: gene KCNH2
Experiment: cell-based

T1 sequence (Q12809 whole entry): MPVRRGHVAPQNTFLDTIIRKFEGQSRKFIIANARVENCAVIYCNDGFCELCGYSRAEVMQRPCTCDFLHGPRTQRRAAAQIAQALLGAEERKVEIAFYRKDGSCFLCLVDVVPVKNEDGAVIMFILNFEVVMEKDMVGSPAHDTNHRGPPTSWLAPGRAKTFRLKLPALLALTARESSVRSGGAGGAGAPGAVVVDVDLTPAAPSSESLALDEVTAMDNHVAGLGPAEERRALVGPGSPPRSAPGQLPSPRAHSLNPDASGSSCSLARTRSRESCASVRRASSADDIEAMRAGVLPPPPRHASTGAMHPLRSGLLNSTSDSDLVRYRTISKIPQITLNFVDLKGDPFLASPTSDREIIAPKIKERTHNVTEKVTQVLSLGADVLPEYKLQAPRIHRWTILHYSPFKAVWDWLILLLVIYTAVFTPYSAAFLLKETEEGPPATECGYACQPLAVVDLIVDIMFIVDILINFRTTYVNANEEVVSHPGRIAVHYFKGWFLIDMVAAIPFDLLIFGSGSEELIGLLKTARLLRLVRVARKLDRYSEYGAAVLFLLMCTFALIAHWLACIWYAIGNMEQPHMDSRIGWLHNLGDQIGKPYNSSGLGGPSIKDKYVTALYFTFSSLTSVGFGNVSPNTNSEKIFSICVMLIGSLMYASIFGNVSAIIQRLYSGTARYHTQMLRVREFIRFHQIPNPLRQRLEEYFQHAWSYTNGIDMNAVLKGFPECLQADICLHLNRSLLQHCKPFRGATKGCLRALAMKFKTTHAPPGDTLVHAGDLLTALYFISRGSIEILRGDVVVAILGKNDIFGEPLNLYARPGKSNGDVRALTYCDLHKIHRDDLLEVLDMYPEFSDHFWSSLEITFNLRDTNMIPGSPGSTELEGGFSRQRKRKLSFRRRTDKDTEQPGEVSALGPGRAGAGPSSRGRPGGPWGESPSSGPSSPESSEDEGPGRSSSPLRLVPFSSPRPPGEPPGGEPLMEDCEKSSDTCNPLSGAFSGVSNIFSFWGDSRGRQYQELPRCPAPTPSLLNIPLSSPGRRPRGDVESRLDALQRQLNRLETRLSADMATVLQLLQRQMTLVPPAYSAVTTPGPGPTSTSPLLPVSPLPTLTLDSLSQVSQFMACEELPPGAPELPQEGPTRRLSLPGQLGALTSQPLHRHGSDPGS

## CCOC(=O)c1cc(C)n(-c2ccccc2)c1C [OSM-S-31]
  IC50: 3.89 µM
